Melting point and IC50 data for 25 compounds are collected here from patent publication US20060063785A1, “Substituted pyrazolo[1,5-a] pyrimidines and process for making same” (priority 2004, published 2006).

Series [1] has as its system LoVo Colon cell line. The series can be described thus: Cytotoxicity assay using LoVo colon cell line (SRB, IC50). Type of series: cell-based. The following applies: read-out: Inhibition of LoVo. The protocol: Cytotoxicity Assay Using LoVo Colon Cell Line: • 1. LoVo Colon cell lines was cultured in RPMI 1640 medium (Gibco/Invitrogen Life Sciences) supplemented with 10% fetal bovine serum (FBS, Gibco) and 50 μg/ml gentamicin (Gibco). Cells were maintained at 37° C. under 7% CO2. • 2. Cells were seeded in 96-well microtiter plates (Corning/Costar) in a volume of 0.15 ml of growth medium (4000 cells/well). Plates were incubated at 37° C. overnight (18-24 hours). • 3. Serial dilutions of the test agent were added to each well. Dilutions were prepared in growth medium. One of two dose ranges was used: 5 pM to 20 μM or […] to 10 μg/ml. Cells were incubated with the test compounds for 4 days at 37° C. • 4. Surviving cells were processed using the SRB asay, as described above.
5. The drug concentration that inhibits cell proliferation by 50% relative to untreated controls (IC50) was determined from cytotoxicity curves using the LSW Toolbox graphing application.

The test system of series [2] is 80S14 (p21-deficient) cells. The series can be described thus: Determination of selectivity of compounds for p21-/- cells: IC50 in 80S14 cells (SRB). Type of series: cell-based, human. The note with it: SRB, read-out: IC50 for 80S14. The protocol: • 1. 80S14 (p21-deficient) cells were cultured in RPMI 1640 medium (Gibco/Invitrogen Life technologies) supplemented with 10% fetal bovine serum (FBS, Gibco) and 10 μg/ml gentamycin (Gibco). Cells were maintained at 37° C. under 7% CO2. • 2. Cells were plated at 6×10^4/ml (0.2 ml/well; 12,000 cells/well) in 96-well microtiter plates (Falcon or Corning/Costar) and incubated at 37° C. overnight (18-24 hours). • 3. 2-5 μl of the test agent-[200 μg/ml stock in 20% DMSO/20 mM HEPES, pH 7.5 (Gibco)] was added to each well to achieve a final concentration of 2-5 μg/ml. Cells were incubated with the test compounds for 5 days at 37° C. • 4. Surviving cells were fixed with 50 μl 50% trichloroacetic acid (Sigma; 10% final concentration) for 1 hour at 4° C. • 5. Plates were rinsed twice with water (0.3 ml per wash using MRD8 robot), and allowed to dry. • 6. Sulforhodamine B (SRB) (Sigma; 0.4% in 1% acetic acid, 50 μl per well; MRD8 robot) was added and plates kept at room temperature for 10 minutes. • 7. Excess dye was removed by washing with 1% acetic acid (3 times, 0.3 ml per wash; MRD8 robot) and allowed to dry. • 8. The dye was solubilized in Tris base (Sigma; 10 mM, 150 μl per well). Plates were kept at room temperature for 30 minutes to allow the dye to diffuse. • 9. Absorbance was measured at 540 nm. • 10. The percentage of cells surviving drug treatment relative to control wells (no drug) was determined. • 11. The difference in % cell survival between the two cell lines was calculated. • 12. Compounds producing a difference score of >50 were considered to be selective for the p21-deficient cells and were evaluated further. Determination of Selectivity of Compounds for p21−/− Cells: • 1. 80S14 cells were cultured as described above. • 2. Cells were seeded in 96-well microtiter plates at 12,000 cells/well (either 0.15 ml/well of 8×10^4 cells/ml suspension, or 0.2 ml/well of 6×10^4 cells/ml suspension). Plates were incubated at 37° C. overnight (18-24 hours). • 3. Serial dilutions of the test agent were added to each well. Dilutions were prepared either in 40% DMSO/20% methanol/20 mM HEPES, pH 7.5 (Gibco) or directly in growth medium. One of two dose ranges were used: 5 pM to 50 μM or 170 pg/ml to 10 μg/ml. Cells were incubated with the test compounds for 5 days at 37° C. • 4. Surviving cells were fixed with 50 μl 50% trichloroacetic acid (Sigma; 10% final concentration) for 1 hour at 4° C. • 5. Plates were rinsed extensively in water, and allowed to dry. • 6. Sulforhodamine B (Sigma; 0.4% in 1% acetic acid, 70 μl per well) was added and plates kept at room temperature for 10 minutes. • 7. Excess dye was removed by washing 5 times with 1% acetic acid and plates were allowed to dry. • 8. The dye was solubilized in Tris base (Sigma; 10 mM, 150 μl per well). Plates were placed on a titer plate shaker (Lab Line Instruments) for 5 minutes to allow the dye to diffuse. • 9. Absorbance was measured at 560 nm.
10. The drug concentration which inhibits cell proliferation by 50% relative to untreated controls (IC50) was determined from cytotoxicity curves.

[3] abbreviates: Cellular activity in LoVo cell, 4 days incubation, SRB assay.
Setting [4] is: Cellular activity in 80S14 (p21-deficient) cells, class symbols.

Read-outs that look alike come from different tables or passages of the source.

Take `CC/C=C/CNc1cccc(-c2ccnc3c(C(=O)c4cccs4)cnn23)c1` [Example 320]: the melting point lay in the range of 72 to 75 °C. The same measure, in the same setting: the same measure for `C/C=C(\C)CNc1cccc(-c2ccnc3c(C(=O)c4cccs4)cnn23)c1` [Example 319]: 118 to 120 °C; for `CCC(C)C(C)CNc1cccc(-c2ccnc3c(C(=O)c4cccs4)cnn23)c1` (stereo not drawn) [Example 318]: 84 to 86 °C; for `O=C(Nc1cccc(-c2ccnc3c(C(=O)c4cccs4)cnn23)c1)c1ccncc1` [Example 201, N-{3-[3-(2-Thienylcarbonyl)pyrazolo[1,5-a]pyrimidin-7-yl]phenyl}isonicotinamide]: 212 to 215 °C. For the compound `O=C(c1cccs1)c1cnn2c(-c3cccc(NCC4CC=CCC4)c3)ccnc12` (stereo not drawn) [Example 324, (7-{3-[(cyclohex-3-en-1-ylmethyl)emnino]phenyl}pyrazolo[1,5-a]pyrimidin-3-yl)-(thien-2-yl)-methanone], the IC50 in series [1] (setting [3]) was less than 100 nM; in series [2] (setting [4]), less than 1000 nM.

In the case of “{7-[3-(1-Ethyl-1H-pyrazol-3-yl)phenyl]pyrazolo[1,5-a]pyrimidin-3-yl}(thien-2-yl)methanone [Example 407]”, the IC50 in series [1] (setting [3]) fell in the range of 100 to 1000 nM; in series [2] (setting [4]), 1000 to 10000 nM.

With “tert-Butyl 4-[2-oxo-2-({3-[3-(thien-2-ylcarbonyl)pyrazolo[1.5-a]pyrimidin-7-yl]phenyl}amino)ethyl]piperidine-1-carboxylate [Example 286]”, the IC50 was less than 100 nM in series [1] (setting [3]) and less than 1000 nM in series [2] (setting [4]).

In the case of `O=C(c1ccco1)c1cnn2c(-c3cccc(-n4cccc4)c3)ccnc12` [Example 186, 2-Furanyl[7-[3-(1H-pyrrol-1-yl)phenyl]pyrazolo[1,5-a]pyrimidin-3-yl]-methanone], the melting point was in the range of 204 to 206 °C. Still for that read-out and setting: the same measure for `COc1ccccc1/C=C/CNc1cccc(-c2ccnc3c(C(=O)c4cccs4)cnn23)c1` [Example 288, [7-(3-{[(2E)-3-(2-Methoxyphenyl)prop-2-enyl]amino}phenyl)pyrazolo[1,5-a]pyrimidin-3-yl](thien-2-yl)methanone]: 128 to 131 °C. The same measure, in the same setting: the same measure for `O=C(O)c1ccccc1C(=O)Nc1cccc(-c2ccnc3c(C(=O)c4cccs4)cnn23)c1` [Example 331, 2-[({3-[3-(Thien-2-ylcarbonyl)pyrazolo[1,5-a]pyrimidin-7-yl]phenyl}amino)carbonyl]benzoic acid]: 215 to 216 °C. In the case of `CC(C)NC(=S)Nc1ccc(Cl)c(-c2ccnc3c(C(=O)c4cccs4)cnn23)c1` [Example 237, N-{4-Chloro-3-[3-(thien-2-ylcarbonyl)pyrazolo[1,5-a]pyrimidin-7-yl]phenyl}-N′-isopropylthiourea], the IC50 lay within 100 to 1000 nM in series [1] (Homo sapiens, 96 h, Cellular activity in LoVo cell, 4 days incubation, SRB assay) and 1000 to 10000 nM in series [2] (Homo sapiens, Cellular activity in 80S14 (p21-deficient) cells, class symbols). As to `C=C(CC)CNc1cccc(-c2ccnc3c(C(=O)c4cccs4)cnn23)c1` [Example 323], the melting point was in the range of 79 to 82 °C. Compound `O=C(Nc1cccc(-c2ccnc3c(C(=O)c4cccs4)cnn23)c1)OCCCN1CCS(=O)(=O)CC1` [Example 309, 3-(1,1-Dioxidothiomorpholin-4-yl)propyl 3-[3-(thien-2-ylcarbonyl)pyrazolo[1,5-a]pyrimidin-7-yl]phenylcarbamate] had a melting point of 148 to 159 °C. On the same count and under the same terms, the same measure for `CC(C)NC(=N)Nc1cccc(-c2ccnc3c(C(=O)c4cccs4)cnn23)c1` [Example 301, N-Isopropyl-N′-{3-[3-(thien-2-ylcarbonyl)pyrazolo[1,5-a]pyrimidin-7-yl]phenyl}guanidine]: more than 200 °C. On to `O=C(c1cccs1)c1cnn2c(-c3cccc(NC(=O)N4CCOCC4)c3)ccnc12` [Example 131, N-{3-[3-(thien-2-ylcarbonyl)pyrazolo[1,5-a]pyrimidin-7-yl]phenyl}morpholine-4-carboxamide], for which the IC50 in series [1] (Homo sapiens, 96 h, LoVo colon cells, 4 days at 37° C., SRB) was 100 to 1000 nM; in series [2] (Homo sapiens, 120 h, 80S14 (p21-deficient) cells, 5 days at 37° C.), 1000 to 10000 nM. The compound `C=C(C)CNc1cccc(-c2ccnc3c(C(=O)c4cccs4)cnn23)c1` [Example 322] gave a melting point of 104 to 106 °C. For `C=C(C)C(=O)Nc1cccc(-c2ccnc3c(C(=O)c4cccs4)cnn23)c1` [Example 36, 2-methyl-N-{3-[3-(thien-2-ylcarbonyl)pyrazolo[1,5-a]pyrimidin-7-yl]phenyl} acrylamide], the IC50 is less than 100 nM in series [1] (LoVo colon cells, 4 days at 37° C., SRB) and less than 1000 nM in series [2] (80S14 (p21-deficient) cells, 5 days at 37° C.).

In turn, `O=C(c1cccs1)c1cnn2c(Cl)ccnc12` [Example 284, (7-Chloropyrazolo[1,5-a]pyrimidin-3-yl)(thien-2-yl)methanone] gave a melting point of 148 to 150 °C. Same read-out and setting: the same measure for `CC(C)CC(=O)Nc1cccc(-c2ccnc3c(-c4cccc(N)c4)cnn23)c1` [Example 352, N-{3-[3-(3-Aminophenyl)pyrazolo[1,5-a]pyrimidin-7-yl]phenyl}-3-methylbutanamide]: 173 to 175 °C; for `CC(C)NC(=NC#N)Nc1cccc(-c2ccnc3c(C(=O)c4cccs4)cnn23)c1` [Example 304, N″-Cyano-N-isopropyl-N′-{3-[3-(thien-2-ylcarbonyl)pyrazolo[1,5-a]pyrimidin-7-yl]phenyl}guanidine]: 240 to 241 °C. Turning to “{7-[3-(1H-Pyrazol-3-yl)phenyl]pyrazolo[1,5-a]pyrimidin-3-yl}(thien-2-yl)methanone [Example 403]”, the IC50 in series [1] (setting [3]) is less than 100 nM; in series [2] (setting [4]), less than 1000 nM. For `CCCCNC(=O)Nc1cccc(-c2ccnc3c(C(=O)c4cccs4)cnn23)c1` [Example 6, N-butyl-N′-{3-[3-(thien-2-ylcarbonyl)pyrazolo [1,5-a]pyrimidin-7-yl]phenyl}urea], the melting point lay within 158 to 160 °C. On the same count and under the same terms, the same measure for `O=C(Nc1cccc(-c2ccnc3c(C(=O)c4cccs4)cnn23)c1)c1ccccc1F` [Example 254, 2-Fluoro-N-{3-[3-(thien-2-ylcarbonyl)pyrazolo[1,5-a]pyrimidin-7-yl]phenyl}benzamide]: 190 to 191 °C. For `CC(CCNc1cccc(-c2ccnc3c(C(=O)c4cccs4)cnn23)c1)CC(C)(C)C` (stereo not drawn) [Example 321, Thien-2-yl(7-{3-[(3,5,5-trimethylhexyl]amino]phenyl}pyrazolo[1,5-a]pyrimidin-3-yl](thien-2-yl)methanone], the figures for the IC50 in series [1] (setting [3]) and in series [2] (setting [4]) were 100 to 1000 nM and 1000 to 10000 nM, respectively. `O=C(c1cccs1)c1cnn2c(-c3cccc(NCc4ccco4)c3)ccnc12` [Example 263, (7-{3-[(2-Furylmethyl)amino]phenyl}pyrazolo[1,5-a]pyrimidin-3-yl)(thien-2-yl)methanone] returned a melting point of 124 to 128 °C.

For orientation: melting point means the temperature, or range, at which the solid turns liquid.
